How the values were obtained:
[1] = biological target: Glutathionylspermidine synthetase/amidase (Escherichia coli) (UniProt P0AES0); assay: Percentage of inhibition of Glutathionylspermidine synthetase at 7.3 mM concentration
[2] = biological target: Glutathionylspermidine synthetase/amidase (Escherichia coli) (UniProt P0AES0); assay: Percentage of inhibition of Glutathionylspermidine synthetase at 1 mM concentration
Escherichia coli [3] = assay: Inhibition of Glutathionylspermidine amidase at 1 mM compound concentration
[4] = biological target: T1, Glutathionylspermidine synthase (Crithidia fasciculata, UniProt P90518); assay: Inhibition of Glutathionylspermidine synthetase. Values from different publications.; parameters: species or system Escherichia coli
T1 sequence (P90518 whole entry): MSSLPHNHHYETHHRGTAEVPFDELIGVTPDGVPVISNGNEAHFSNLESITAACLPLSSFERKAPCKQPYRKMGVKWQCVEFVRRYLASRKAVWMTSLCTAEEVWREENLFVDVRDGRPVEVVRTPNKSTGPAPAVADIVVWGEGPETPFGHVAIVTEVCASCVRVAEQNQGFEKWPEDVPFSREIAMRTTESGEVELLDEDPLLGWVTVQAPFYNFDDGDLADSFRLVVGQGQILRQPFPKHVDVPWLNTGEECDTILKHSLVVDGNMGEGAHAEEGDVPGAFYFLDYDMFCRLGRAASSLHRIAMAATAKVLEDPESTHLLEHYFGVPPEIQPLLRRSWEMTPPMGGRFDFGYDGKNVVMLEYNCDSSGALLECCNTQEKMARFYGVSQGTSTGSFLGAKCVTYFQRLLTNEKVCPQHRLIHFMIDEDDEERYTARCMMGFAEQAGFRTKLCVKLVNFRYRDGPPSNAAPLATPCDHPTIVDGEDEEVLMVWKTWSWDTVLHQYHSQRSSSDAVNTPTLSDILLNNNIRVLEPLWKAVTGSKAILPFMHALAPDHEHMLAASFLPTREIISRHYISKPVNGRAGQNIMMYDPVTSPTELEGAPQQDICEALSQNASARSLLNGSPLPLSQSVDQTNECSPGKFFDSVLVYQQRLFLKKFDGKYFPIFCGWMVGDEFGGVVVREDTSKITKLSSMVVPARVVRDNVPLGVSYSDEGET

Escherichia coli [5] = assay: Inhibition of glutathionylspermidine amidase at 1 mM; not detectable
[6] = biological target: Glutathionylspermidine synthetase/amidase (Escherichia coli) (UniProt P0AES0); assay: Inhibition of Glutathionylspermidine synthetase

Chain of Glutathionylspermidine synthetase/amidase (Escherichia coli) (P0AES0 whole entry, looked up): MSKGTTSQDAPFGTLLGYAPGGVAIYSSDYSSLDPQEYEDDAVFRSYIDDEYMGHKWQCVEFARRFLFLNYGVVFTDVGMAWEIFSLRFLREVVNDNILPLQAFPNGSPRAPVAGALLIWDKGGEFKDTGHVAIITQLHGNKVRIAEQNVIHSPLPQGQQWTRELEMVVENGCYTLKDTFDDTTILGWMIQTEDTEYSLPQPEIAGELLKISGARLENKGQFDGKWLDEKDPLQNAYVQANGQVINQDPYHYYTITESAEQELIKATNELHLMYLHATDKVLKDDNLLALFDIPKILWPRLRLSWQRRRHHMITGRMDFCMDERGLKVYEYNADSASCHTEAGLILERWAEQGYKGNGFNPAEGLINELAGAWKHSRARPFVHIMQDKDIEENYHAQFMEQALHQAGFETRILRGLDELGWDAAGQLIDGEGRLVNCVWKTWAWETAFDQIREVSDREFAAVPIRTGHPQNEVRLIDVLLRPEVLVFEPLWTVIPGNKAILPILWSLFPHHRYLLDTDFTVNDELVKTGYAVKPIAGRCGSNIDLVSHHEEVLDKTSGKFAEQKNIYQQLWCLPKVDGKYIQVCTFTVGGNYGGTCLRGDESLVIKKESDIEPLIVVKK

Row | inhibition [1] [%] | inhibition [2] [%] | inhibition (Escherichia coli [5]) | Ki [6] [µM] | SMILES | inhibition (Escherichia coli [3]) [%] | Ki [4] [µM]
1 | 31.3 | 5.7 | – | – | CCCCNP(=O)(CNC(=O)[C@H](C)NC(=O)CC[C@H](N)C(=O)O)OC (some centres not stated) | 1.8 | –
2 | – | – | – | – | COP(=O)(CNC(=O)[C@H](C)NC(=O)CC[C@H](N)C(=O)O)NCCCNCCCCN (some centres not stated) | 3.4 | 24
3 | – | – | not detectable | 6 | C[C@H](NC(=O)CC[C@H](N)C(=O)O)C(=O)NCP(=O)(O)OCCCNCCCCN | – | –

— ChEMBL document CHEMBL1130241, “Design, synthesis, and biochemical evaluation of phosphonate and phosphonamidate analogs of glutathionylspermidine as inhibitors of glutathionylspermidine synthetase/amidase from Escherichia coli” (J Med Chem, 1997)
